Publication PMC11898488, “A2A Adenosine Receptor Antagonists and Their Efficacy in Rat Models of Parkinson’s Disease” (Cells, 2025)

Columns and labels:
human A2BAR = target: T1, human A2BAR (Homo sapiens, UniProt P29275); details: inhibition of NECA-stimulated AC activity, CHO cells expressing human A2BAR; geometric mean with 95% confidence limits; read-out: IC50 A2B; cited from earlier work
T1 construct: expressed in transfected cells; host or cells: CHO cells, crude membrane fractions
T1 sequence (P29275 1-332): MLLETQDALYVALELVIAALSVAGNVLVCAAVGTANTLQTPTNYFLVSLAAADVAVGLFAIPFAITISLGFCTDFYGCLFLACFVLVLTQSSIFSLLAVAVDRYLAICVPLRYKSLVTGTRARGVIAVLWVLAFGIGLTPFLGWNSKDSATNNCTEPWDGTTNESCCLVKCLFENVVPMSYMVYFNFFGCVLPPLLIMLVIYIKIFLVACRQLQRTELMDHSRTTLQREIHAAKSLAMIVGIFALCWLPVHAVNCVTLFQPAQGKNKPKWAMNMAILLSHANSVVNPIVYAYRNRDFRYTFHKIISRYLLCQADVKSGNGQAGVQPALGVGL

human A3AR = target: T2, human A3AR (Homo sapiens, UniProt P0DMS8); details: [3H]-NECA displacement, human A3AR in CHO cells; geometric mean with 95% confidence limits; read-out: Ki A3; cited from earlier work
T2 construct: expressed in transfected cells; host or cells: CHO cells, crude membrane fractions
T2 sequence (P0DMS8 1-318): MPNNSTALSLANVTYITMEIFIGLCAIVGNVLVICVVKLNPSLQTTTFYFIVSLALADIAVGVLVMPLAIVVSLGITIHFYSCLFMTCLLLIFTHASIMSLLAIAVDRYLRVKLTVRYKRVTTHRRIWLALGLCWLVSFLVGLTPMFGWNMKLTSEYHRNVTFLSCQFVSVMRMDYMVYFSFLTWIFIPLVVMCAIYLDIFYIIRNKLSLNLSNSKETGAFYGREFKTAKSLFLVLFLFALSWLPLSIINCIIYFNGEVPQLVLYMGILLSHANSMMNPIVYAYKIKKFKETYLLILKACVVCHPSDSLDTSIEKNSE

human A1AR = target: T3, human A1AR (Homo sapiens, UniProt P30542); details: [3H]-CCPA displacement, human A1AR in CHO cells; geometric mean with 95% confidence limits; read-out: Ki A1; cited from earlier work
T3 construct: expressed in transfected cells; host or cells: CHO cells, crude membrane fractions
T3 sequence (P30542 1-326): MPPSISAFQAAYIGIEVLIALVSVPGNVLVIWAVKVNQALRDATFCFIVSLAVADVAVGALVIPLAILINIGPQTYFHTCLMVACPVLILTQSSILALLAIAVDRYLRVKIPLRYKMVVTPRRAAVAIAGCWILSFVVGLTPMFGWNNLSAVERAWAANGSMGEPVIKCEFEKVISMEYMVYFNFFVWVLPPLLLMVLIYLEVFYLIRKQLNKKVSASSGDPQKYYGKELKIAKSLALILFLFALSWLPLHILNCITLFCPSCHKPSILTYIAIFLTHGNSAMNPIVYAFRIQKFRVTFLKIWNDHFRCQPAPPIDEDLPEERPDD

human A2AAR = target: T4, human A2AAR (Homo sapiens, UniProt P29274); details: [3H]-NECA displacement, human A2AAR in CHO cells; geometric mean with 95% confidence limits; read-out: Ki A2A; cited from earlier work
T4 construct: expressed in transfected cells; host or cells: CHO cells, crude membrane fractions
T4 sequence (P29274 whole entry): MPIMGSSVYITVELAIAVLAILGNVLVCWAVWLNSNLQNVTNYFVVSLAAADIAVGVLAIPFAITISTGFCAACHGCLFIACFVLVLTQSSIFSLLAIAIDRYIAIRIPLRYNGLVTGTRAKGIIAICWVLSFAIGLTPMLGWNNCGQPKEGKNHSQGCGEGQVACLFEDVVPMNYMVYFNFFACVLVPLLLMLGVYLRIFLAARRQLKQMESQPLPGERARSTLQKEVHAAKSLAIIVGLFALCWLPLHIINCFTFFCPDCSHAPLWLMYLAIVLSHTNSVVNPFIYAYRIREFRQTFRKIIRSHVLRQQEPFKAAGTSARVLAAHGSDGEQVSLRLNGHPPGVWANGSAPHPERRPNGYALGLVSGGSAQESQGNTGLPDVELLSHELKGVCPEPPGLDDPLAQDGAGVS

[1] = tested on: tacrine-induced tremulous jaw movements; assay: Tacrine-induced tremulous jaw movements; assay type: in vivo, rat; details: rats, 5 mg/kg i.p. pretreatment, tacrine 2.5 mg/kg i.p.; 60 min, versus vehicle
Protocol: Rats were divided into two groups and treated with vehicle or 4 (5 mg/kg. i.p.). Tacrine (2.5 mg/kg i.p.) was administered 20 min after vehicle or 4, and the number of TJMs and bursts of TJMs (i.e., episodes of consecutive TJMs) were measured for 60 min. TJMs were defined as vertical deflections of the lower jaw not directed at a particular stimulus. Yawns, tongue protrusions, and stereotypies, such as grooming, were not scored. In the tacrine-induced TJM tests, the mean and S.E.M of the number of TJMs and bursts were calculated. Significant differences between groups were evaluated by Student’s t-test.

For `CCn1c(Br)nc2c(N)nc(OCCc3ccccc3)nc21` [Compound 1, 8-bromo-9-ethyl-2-phenetoxyadenine], which IC50 (human A2BAR) is on record?
The IC50 was 569 nM.

What about the Ki (human A3AR) of the same compound?
Its Ki is 1090 nM.

And the Ki (human A1AR)?
Its Ki is 23 nM.

What about the Ki (human A2AAR) of the same compound?
The Ki was 1.7 nM.

Which “Number of tremor bursts induced by tacrine” value [1] does the source give for `CCOc1nc2c(N)nc(OCCc3ccccc3)nc2n1CC` [Compound 4, 8-ethoxy-9-ethyl-2-phenethoxyadenine] here?
The value was “but not tremor bursts”.

What about the “Number of tremulous jaw movements induced by tacrine” value [1] of the same compound?
Its value is “significantly reduced”.
